# According to BindingDB's records for doi:10.1016/j.bmcl.2005.08.107 (Bristol-Myers Squibb Pharmaceutical Research Institute, 2005):
# pIC50: −log10 of the molar value.
# Target: Coagulation factor X (Homo sapiens, UniProt P00742)
# Assay: Inhibitory activity against human FXa
# Sequence of Coagulation factor X (P00742 41-179 limits assumed): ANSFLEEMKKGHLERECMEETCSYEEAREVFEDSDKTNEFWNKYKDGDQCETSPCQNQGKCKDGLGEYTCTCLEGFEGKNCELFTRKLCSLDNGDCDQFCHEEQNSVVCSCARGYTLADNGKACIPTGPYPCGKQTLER
# Sequence of Coagulation factor X (P00742 235-488 limits assumed): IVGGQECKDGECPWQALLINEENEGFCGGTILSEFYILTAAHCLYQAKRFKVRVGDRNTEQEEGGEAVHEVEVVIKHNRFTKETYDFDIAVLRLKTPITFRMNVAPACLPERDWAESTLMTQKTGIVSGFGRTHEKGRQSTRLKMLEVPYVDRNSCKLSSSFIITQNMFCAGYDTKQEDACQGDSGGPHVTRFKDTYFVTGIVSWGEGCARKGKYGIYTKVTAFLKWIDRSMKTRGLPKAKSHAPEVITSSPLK
row,Compound,pIC50
1,"Cc1cc2cc(N=C(N[C@H]3CCCCN(CC(=O)N4CCCC4)C3=O)C(C#N)C(=O)N3CCC(C)CC3)ccc2o1 (stereo partly drawn) [(S,Z)-3-(2-methylbenzofuran-5-ylamino)-2-(4-methylpiperidine-1-carbonyl)-3-(2-oxo-1-(2-oxo-2-(pyrrolidin-1-yl)ethyl)azepan-3-ylamino)acrylonitrile]",7.24
2,"Cc1ccc(NC(C[N+](=O)[O-])=N[C@H]2CCCCN(CC(=O)N3CCCC3)C2=O)cc1 [(S,Z)-3-(1-(p-toluidino)-2-nitrovinylamino)-1-(2-oxo-2-(pyrrolidin-1-yl)ethyl)azepan-2-one]",< 4.47
3,"Cc1cc2cc(N=C(N[C@H]3CCCCN(CC(=O)N4CCCC4)C3=O)C(C#N)C(=O)OC(C)(C)C)ccc2o1 (stereo partly drawn) [(S,Z)-tert-butyl 2-cyano-3-(2-methylbenzofuran-5-ylamino)-3-(2-oxo-1-(2-oxo-2-(pyrrolidin-1-yl)ethyl)azepan-3-ylamino)acrylate]",7.24
4,"CN(C)c1ccc(NC(C[N+](=O)[O-])=N[C@H]2CCCCN(CC(=O)N3CCCC3)C2=O)cc1 [(S,Z)-3-(1-(4-(dimethylamino)phenylamino)-2-nitrovinylamino)-1-(2-oxo-2-(pyrrolidin-1-yl)ethyl)azepan-2-one]",< 4.47

# Stronger by pIC50, values ahead:
row,pIC50,Compound
1,7.89,"COc1ccc(C(=O)C(C#N)C(=Nc2ccc3oc(C)cc3c2)N[C@H]2CCCCN(CC(=O)N3CCCC3)C2=O)cc1 (stereo partly drawn) [(S,Z)-2-(4-methoxybenzoyl)-3-(2-methylbenzofuran-5-ylamino)-3-(2-oxo-1-(2-oxo-2-(pyrrolidin-1-yl)ethyl)azepan-3-ylamino)acrylonitrile]"
2,7.89,"Cc1cc2cc(N=C(N[C@H]3CCCCN(CC(=O)N4CCCC4)C3=O)C(C#N)C(=O)NC(N)=O)ccc2o1 (stereo partly drawn) [(S,Z)-1-(2-cyano-3-(2-methylbenzofuran-5-ylamino)-3-(2-oxo-1-(2-oxo-2-(pyrrolidin-1-yl)ethyl)azepan-3-ylamino)acryloyl)urea]"
3,7.89,"Cc1cc2cc(N=C(N[C@H]3CCCCN(CC(=O)N4CCCC4)C3=O)C(C#N)C(=O)c3ccc(Cl)cc3)ccc2o1 (stereo partly drawn) [(S,Z)-2-(4-chlorobenzoyl)-3-(2-methylbenzofuran-5-ylamino)-3-(2-oxo-1-(2-oxo-2-(pyrrolidin-1-yl)ethyl)azepan-3-ylamino)acrylonitrile]"
